Assay results taken from US6846492B2, “Use of phenylethylamine derivatives for the antimicrobial treatment of surfaces” (Ciba Specialty Chemicals Corporation, priority 2000, dated 2005).
Values after ≈ are worked out from the molar mass of the structure shown. Counter-ions that a name gives are not always drawn.

Key:
[1] = system: Enterococcus hirae ATCC 10541; assay: MIC determination in microtiter plates, Enterococcus hirae; type: cell-based; conditions: ATCC10541, Table 2c, 48 hours at 37° C., read-out: MIC [ppm] Enterococcus hirae ATCC 10541
Method: (§1) Determination of the Minimum Inhibitory Concentration (MIC Value) in Microtiter Plates
(§2) Casein/soybean flour peptone bouillon for the preparation of pre-cultures of the test bacteria and yeast.
(§3) Mycological slant agar for the pre-culture of moulds
(§4) The test substances are pre-dissolved in dimethyl sulfoxide (DMSO) and tested in a dilution series of 1:2.
(§5) Bacteria and yeast are cultured overnight in CASO bouillon, the mould is cultured overnight on mycological slant agar, and washed off with 10 ml of 0.85% sodium chloride solution (+0.1% TritonX-100).
(§6) All the test organisms are adjusted to an organism count of 1−5×10^6 CFU/ml using 0.85% sodium chloride solution.
(§7) The test substances are pre-pipetted into microtiter plates in an amount of 8 μl per well.
(§8) Pre-diluted organism suspensions are diluted 1:100 in CASO bouillon (bacteria and yeast) or Sabouraud 2% glucose bouillon (mould) and are added in an amount of 192 μl per well to the test substances.
(§9) The test batches are incubated for 48 hours at 37° C. (bacteria and yeast) or for 5 days at 28° C. (mould).
(§10) After incubation, the growth is evaluated by reference to the turbidity of the test batches (optical density) at 620 nm in a microplate reader.
(§11) One microtiter plate is used for each test organism and substance concentration. All the substances are tested in duplicate.

[2] = system: Epidermophyton floccosum DSM 10709; assay: MIC determination in microtiter plates, Epidermophyton floccosum; type: cell-based; conditions: DSM10709, 120 h, Table 2c, 5 days at 28° C., read-out: MIC [ppm] Epidermophyton floccosum DSM 10709
Method: as §1, §2, §3, §4, §5, §6, §7, §8, §9, §10, §11

[3] = system: Streptococcus mutans ATCC 25175; assay: MIC determination in microtiter plates, Streptococcus mutans; type: cell-based; conditions: ATCC25175, Table 2c, 48 hours at 37° C., read-out: MIC [ppm] Streptococcus mutans ATCC 25175
Method: as §1, §2, §3, §4, §5, §6, §7, §8, §9, §10, §11

[4] = system: Trichophyton rubrum DSM 4167; assay: MIC determination in microtiter plates, Trichophyton rubrum; type: cell-based; conditions: DSM4167, 120 h, Table 2c, 5 days at 28° C., read-out: MIC [ppm] Trichophyton rubrum DSM 4167
Method: as §1, §2, §3, §4, §5, §6, §7, §8, §9, §10, §11

[5] = system: Candida albicans ATCC 10231 (= CA); assay: MIC determination in microtiter plates, Candida albicans; type: cell-based; conditions: 48 hours at 37° C.; for MIC: ATCC10231, Table 2c, read-out: MIC [ppm] Candida albicans ATC 10231; for MIC [ppm] CA: Tables 2a/2b, ≦20% growth, optical density 620 nm, some approximate values
Method: as §1, §2, §3, §4, §5, §6, §7, §8, §9, §10, §11

[6] = system: Porphyromonas gingivalis DSM 20709; assay: MIC determination in microtiter plates, Porphyromonas gingivalis; type: cell-based; conditions: DSM20709, Table 2c, 48 hours at 37° C., read-out: MIC [ppm] Porphyromonas gingivalis DSM 20709
Method: as §1, §2, §3, §4, §5, §6, §7, §8, §9, §10, §11

[7] = system: Streptococcus sobrinus DSM 20742; assay: MIC determination in microtiter plates, Streptococcus sobrinus; type: cell-based; conditions: DSM20742, Table 2c, 48 hours at 37° C., read-out: MIC [ppm] Streptococcus sobrinus DSM 20742
Method: as §1, §2, §3, §4, §5, §6, §7, §8, §9, §10, §11

[8] = system: Staphylococcus epidermidis ATCC 12228; assay: MIC determination in microtiter plates, Staphylococcus epidermidis; type: cell-based; conditions: ATCC12228, Table 2c, 48 hours at 37° C., read-out: MIC [ppm] Staphylococcus epidermidis ATCC 12228
Method: as §1, §2, §3, §4, §5, §6, §7, §8, §9, §10, §11

[9] = system: Staphylococcus hominis DMS 20328 (= SH); assay: MIC determination in microtiter plates, Staphylococcus hominis; type: cell-based; conditions: 48 hours at 37° C.; for MIC: DSM20328, Table 2c, read-out: MIC [ppm] Staphylococcus hominis DSM 20328; for MIC [ppm] SH: Tables 2a/2b, ≦20% growth, optical density 620 nm, tested at 120, 60, 30, 15, 7.5 and 3.5 ppm, some approximate
Method: as §1, §2, §3, §4, §5, §6, §7, §8, §9, §10, §11

[10] = system: Corynebacterium xerosis ATCC 373; assay: MIC determination in microtiter plates, Corynebacterium xerosis; type: cell-based; conditions: ATCC373, Table 2c, 48 hours at 37° C., read-out: MIC [ppm] Corynebacterium xerosis ATCC 373
Method: as §1, §2, §3, §4, §5, §6, §7, §8, §9, §10, §11

[11] = system: Aspergillus niger ATCC 6275 (= AN); assay: MIC determination in microtiter plates, Aspergillus niger; type: cell-based; conditions: 5 days at 28° C.; for MIC: ATCC6275, 120 h, Table 2c, read-out: MIC [ppm] Aspergillus niger ATCC 6275; for MIC [ppm] AN: Tables 2a/2b, ≦20% growth, optical density 620 nm, some approximate values
Method: as §1, §2, §3, §4, §5, §6, §7, §8, §9, §10, §11

[12] = system: Staphylococcus aureus ATCC 9144; assay: MIC determination in microtiter plates, Staphylococcus aureus; type: cell-based; conditions: ATCC9144, Table 2c, 48 hours at 37° C., read-out: MIC [ppm] Staphylococcus aureus ATCC 9144
Method: as §1, §2, §3, §4, §5, §6, §7, §8, §9, §10, §11

[13] = system: Propionibacterium acnes ATCC11829; assay: MIC determination in microtiter plates, Propionibacterium acnes; type: cell-based; conditions: Cutibacterium acnes, ATCC11829; Table 2c; 48 hours at 37° C.; read-out: MIC [ppm] Propionibacterium acnes ATCC11829
Method: as §1, §2, §3, §4, §5, §6, §7, §8, §9, §10, §11

[14] = system: Actinomyces viscosum DSM 43329; assay: MIC determination in microtiter plates, Actinomyces viscosum; type: cell-based; conditions: DSM43329, Table 2c, 48 hours at 37° C., read-out: MIC [ppm] Actinomyces viscosum DSM 43329
Method: as §1, §2, §3, §4, §5, §6, §7, §8, §9, §10, §11

[15] = system: Pseudomonas aeruginosa CIP A-22 (= PA); assay: MIC determination in microtiter plates, Pseudomonas aeruginosa; type: cell-based; conditions: Tables 2a/2b, 48 hours at 37° C., ≦20% growth, optical density 620 nm, some approximate values
Method: as §1, §2, §3, §4, §5, §6, §7, §8, §9, §10, §11

[16] = system: Escherichia coli NCTC 8196 (= EC); assay: MIC determination in microtiter plates, Escherichia coli; type: cell-based; conditions: Tables 2a/2b, 48 hours at 37° C., ≦20% growth, optical density 620 nm, some approximate values
Method: as §1, §2, §3, §4, §5, §6, §7, §8, §9, §10, §11

SMILES	MIC [ppm] PA [15] [ppm]	MIC [ppm] CA [5] [ppm]	MIC [ppm] EC [16]	MIC [ppm] SH [9] [ppm]	MIC [ppm] AN [11] [ppm]	other results
CCCCCCCCCCCCOc1ccc(CCN)cc1 [Compound 101, 1-Amino-2-(4-dodecyloxyphenyl)ethane]	–	–	–	–	–	MIC [1]: 50 µg/mL (≈ 164 µM); MIC [2]: 3 µg/mL (≈ 9.82 µM); MIC [3]: 6 µg/mL (≈ 19.6 µM); MIC [4]: 13 µg/mL (≈ 42.6 µM); MIC [5]: 50 µg/mL (≈ 164 µM); MIC [6]: 25 µg/mL (≈ 81.8 µM); MIC [7]: 13 µg/mL (≈ 42.6 µM); MIC [8]: 13 µg/mL (≈ 42.6 µM); MIC [9]: 8 µg/mL (≈ 26.2 µM); MIC [10]: 6 µg/mL (≈ 19.6 µM); MIC [11]: 1 µg/mL (≈ 3.27 µM); MIC [12]: 13 µg/mL (≈ 42.6 µM)
CCCCCCCCCCCCOc1ccc(CCN)cc1OC [Compound 100, 1-Amino-2-(4-dodecyloxy-3-methoxyphenyl)ethane]	–	–	–	–	–	MIC [13]: 50 µg/mL (≈ 149 µM); MIC [14]: 25 µg/mL (≈ 74.5 µM); MIC [1]: 25 µg/mL (≈ 74.5 µM); MIC [2]: 3 µg/mL (≈ 8.94 µM); MIC [3]: 6 µg/mL (≈ 17.9 µM); MIC [5]: 2 µg/mL (≈ 5.96 µM); MIC [6]: 25 µg/mL (≈ 74.5 µM); MIC [7]: 6 µg/mL (≈ 17.9 µM); MIC [8]: 13 µg/mL (≈ 38.7 µM); MIC [9]: 2 µg/mL (≈ 5.96 µM); MIC [10]: 6 µg/mL (≈ 17.9 µM); MIC [11]: 2 µg/mL (≈ 5.96 µM); MIC [12]: 25 µg/mL (≈ 74.5 µM)
NCCc1cc(OCc2ccc(F)cc2)c(OCc2ccc(F)cc2)c(OCc2ccc(F)cc2)c1 [Compound 68]	>120	3.75	3.75 ppm	3.75	>120	–
C=CCCCOc1ccc(CCN)cc1OCCCC=C [Compound 44]	>120	60	60 ppm	60	>120	–
NCCc1cc(OCc2ccccc2)c(OCc2ccccc2)c(OCc2ccccc2)c1 (as salt: hydrochloride)	–	–	–	–	–	melting point: 130 °C
CCCCOc1cc(CCN)cc(OCCCC)c1OCCCC [Compound 81]	120	30	7,5 ppm	15	>120	–
NCCc1ccc(OCC(=O)OCc2ccccc2)c(OCC(=O)OCc2ccccc2)c1 [Compound 26]	>120	>120	>120 ppm	>120	>120	–
COC(=O)c1ccc(COc2cc(CCN)cc(OCc3ccc(C(=O)OC)cc3)c2OCc2ccc(C(=O)OC)cc2)cc1 [Compound 65]	>120	60	>120 ppm	15	>120	–
CCCCOc1ccc(CCN)cc1OCCCC [Compound 30]	>120	120	120 ppm	120	>120	–
CCCOc1ccc(CCN)cc1OCCC [Compound 29]	>120	>120	>120 ppm	>120	>120	–
